Source: patent US8633251B2, “Derivatives of aminoalkanols, method of obtaining of aminoalkanols and their use” (Uniwersytet Jagiellonski, priority 2008, dated 2014)
Where a name gives a salt, the structure may show the parent alone. Read-outs that look alike come from different tables or passages of the source.

What was measured:
[1] = system: maximal electroshock seizures; assay: Maximum Electroshock Seizure (MES) test, mice; assay type: in vivo
Protocol: (§1) In order to define anticonvulsant activity, screening tests were performed, using animal models of seizures. […] Each substance (after dissolving in methylcellulose) was normally tested in doses 30, 100, and 300 mg/kg body weight (b.w.) (mice) or in 30 and 50 mg/kg b.w. (rats) in two possible routes of administration: intraperitoneal (i.p.) or oral (p.o.). Appropriate tests were performed 0.5 and 4 h after administration of the compound. […] (mice) the tests were also performed in doses 10 and 3 mg/kg b.w.
Maximum Electroshock Seizure (MES) test is an electric test, verifying activity towards generalized tonic-clonic seizures (grand mal epilepsy). […] Its procedure consists in administration to an animal a mentioned dose, and after 0.5 or 4 h attaching corneal electrodes (after anesthetic eye-drops: 0.5% tetracaine hydrochloride in 0.9% NaCl) and turning on electric current (60 Hz, 0.2 s, 50 mA (mice) or 150 mA (rats)). […] Normally, in the dose 30 mg/kg b.w. the test is done in 1 mouse after 0.5 or 4 h, in the dose 100 mg/kg b.w.—in 3 mice, and in the dose 300 mg/kg b.w.—in 1 mouse.

neurotoxicity (rotarod) = assay: Neurotoxicity test (TOX), rotarod, mice; assay type: in vivo
Protocol: as §1
It is performed with use of rotarod test. The animal is placed on a plastic rod (1 inch in diameter), rotating 6 rpm. The rod is placed on a level discouraging the animal to jump off. […] Neurotoxicity is stated if the animal cannot stay on the rod for 1 min. in any of 3 trials. Normally the test is performed in dose 30 mg/kg b.w. in 4 mice (0.5 h) and in 2 mice (4 h), in the dose 100 mg/kg b.w. in 8 mice (0.5 h) and in 4 mice (4 h) and in the dose 300 mg/kg b.w. in 4 mice (0.5 h) and 2 mice (4 h).

[2] = mice, dose 100 mg/kg b.w., time 0.5 h
[3] = mice, dose 300 mg/kg b.w., time 0.5 h
[4] = mice, dose 30 mg/kg b.w., time 0.5 h
[5] = mice, dose 100 mg/kg b.w., time 4 h
[6] = mice, dose 300 mg/kg b.w., time 4 h
[7] = Mus musculus, 0.5 h, read-out: MES, No. of protected animals/No. of used animals
[8] = mice, dose 100 mg/kg b.w., 0.5 h
[9] = mice, dose 300 mg/kg b.w., 0.5 h

CC[C@H](CO)NCCOc1cc(C)cc(C)c1C [Compound 40, R-(−)-2N-[(2,3,5-trimethylphenoxy)ethyl]amino-1-butanol]
responders at 30 mg/kg ([1]; Mus musculus, mice, dose 30 mg/kg b.w., time 0.5 h, read-out: MES, No. of protected animals/No. of used animals): 100% | responders at 100 mg/kg ([1]; Mus musculus, mice, dose 100 mg/kg b.w., time 0.5 h, read-out: MES, No. of protected animals/No. of used animals (converted)): 66.7% | responders at 100 mg/kg ([1]; Mus musculus, mice, dose 100 mg/kg b.w., time 4 h, read-out: MES, No. of protected animals/No. of used animals (converted)): 33.3% | TOX, No. of animals exhibiting motor impairment/no. of used animals (neurotoxicity (rotarod); [2]): 4/8 | TOX, No. of animals exhibiting motor impairment/no. of used animals (neurotoxicity (rotarod); [3]): 4/4

CC[C@@H](CO)NCCOc1cc(C)cc(C)c1C [Compound 41, S-(+)-2N-[(2,3,5-trimethylphenoxy)ethyl]amino-1-butanol]
MES, No. of protected animals/No. of used animals [1, 4]: 1/1 | MES, No. of protected animals/No. of used animals [1, 2]: 3/3 | TOX, No. of animals exhibiting motor impairment/no. of used animals (neurotoxicity (rotarod); mouse, in vivo, 30 mg/kg): 3/4 | TOX, No. of animals exhibiting motor impairment/no. of used animals (neurotoxicity (rotarod); mouse, in vivo, 100 mg/kg): 7/8 | TOX, No. of animals exhibiting motor impairment/no. of used animals (neurotoxicity (rotarod); mouse, in vivo, 300 mg/kg): 4/4

Cc1cc(C)c(C)c(OCCNCC(O)c2ccccc2)c1.Cl (stereo not shown) [Compound 42, R,S-2N-[(2,3,5-trimethylphenoxy)ethyl]amino-1-phenylethanol hydrochloride]
MES, No. of protected animals/No. of used animals [1, 2]: 3/3 | MES, No. of protected animals/No. of used animals [1, 5]: 1/3 | MES, No. of protected animals/No. of used animals [1, 3]: 1/1 | TOX, No. of animals exhibiting motor impairment/no. of used animals (neurotoxicity (rotarod); [4]): 3/4 | TOX, No. of animals exhibiting motor impairment/no. of used animals (neurotoxicity (rotarod); mice, dose 30 mg/kg b.w., time 4 h): 1/2 | TOX, No. of animals exhibiting motor impairment/no. of used animals (neurotoxicity (rotarod); [2]): 8/8 | TOX, No. of animals exhibiting motor impairment/no. of used animals (neurotoxicity (rotarod); [5]): 4/4 | TOX, No. of animals exhibiting motor impairment/no. of used animals (neurotoxicity (rotarod); [3]): 4/4 | TOX, No. of animals exhibiting motor impairment/no. of used animals (neurotoxicity (rotarod); [6]): 1/1

Cc1cc(C)c(OCCN[C@H](C)CO)c(C)c1 [Compound 43, R-(−)-2N-[(2.4.6-trimethylphenoxy)ethyl]amino-1-propanol]
MES, No. of protected animals/No. of used animals [1, 2]: 3/3 | TOX, No. of animals exhibiting motor impairment/no. of used animals (neurotoxicity (rotarod); [4]): 3/4 | TOX, No. of animals exhibiting motor impairment/no. of used animals (neurotoxicity (rotarod); [2]): 8/8 | TOX, No. of animals exhibiting motor impairment/no. of used animals (neurotoxicity (rotarod); [3]): 4/4

Cc1cc(C)c(OCCNCC(O)c2ccccc2)c(C)c1 (stereo not shown) [Compound 45, R,S-2N-[(2,4,6-trimethylphenoxy)ethyl]amino-1-phenylethanol]
MES, No. of protected animals/No. of used animals [1, 2]: 3/3 | MES, No. of protected animals/No. of used animals [1, 3]: 1/1 | MES, No. of protected animals/No. of used animals [1, 6]: 1/1 | TOX, No. of animals exhibiting motor impairment/no. of used animals (neurotoxicity (rotarod); [3]): 3/4

Cc1cccc(C)c1OCCCN[C@H](C)CO [Compound 52, R-(−)-2N-[(2,6-dimethylphenoxy)propyl]amino-1-propanol hydrochloride]
responders at 30 mg/kg [1, 7]: 100% | responders at 100 mg/kg [1, 7]: 66.7% | responders at 300 mg/kg ([1]; Mus musculus, 4 h, read-out: MES, No. of protected animals/No. of used animals): 100% | TOX, No. of animals exhibiting motor impairment/no. of used animals (neurotoxicity (rotarod); mice, dose 10 mg/kg b.w., 0.5 h): 1/4 | TOX, No. of animals exhibiting motor impairment/no. of used animals (neurotoxicity (rotarod); [8]): 6/8 | TOX, No. of animals exhibiting motor impairment/no. of used animals (neurotoxicity (rotarod); mice, dose 100 mg/kg b.w., 4 h): 1/4 | TOX, No. of animals exhibiting motor impairment/no. of used animals (neurotoxicity (rotarod); [9]): 3/4

Cc1cccc(C)c1OCC(=O)NC(C)CO (stereo not shown) [Compound 60, R,S-2N-[(2,6-dimethylphenoxy)acetyl]amino-1-propanol]
MES, No. of protected animals/No. of used animals [1, 9]: 1/1 | TOX, No. of animals exhibiting motor impairment/no. of used animals (neurotoxicity (rotarod); [8]): 2/8 | TOX, No. of animals exhibiting motor impairment/no. of used animals (neurotoxicity (rotarod); mice, dose 100 mg/kg b.w., 4 h): 2/4 | TOX, No. of animals exhibiting motor impairment/no. of used animals (neurotoxicity (rotarod); [9]): 4/4

Cc1cccc(C)c1OCC(=O)N[C@@H](C)CO [Compound 62, S-(−)-2N-[(2,6-dimethylphenoxy)acetyl]amino-1-propanol]
MES, No. of protected animals/No. of used animals [1, 9]: 1/1 | MES, No. of protected animals/No. of used animals ([1]; mice, dose 300 mg/kg b.w., 4 h): 1/1 | TOX, No. of animals exhibiting motor impairment/no. of used animals (neurotoxicity (rotarod); mice, dose 30 mg/kg b.w., 0.5 h): 1/4 | TOX, No. of animals exhibiting motor impairment/no. of used animals (neurotoxicity (rotarod); [8]): 3/8 | TOX, No. of animals exhibiting motor impairment/no. of used animals (neurotoxicity (rotarod); mice, dose 100 mg/kg b.w., 4 h): 1/4 | TOX, No. of animals exhibiting motor impairment/no. of used animals (neurotoxicity (rotarod); [9]): 3/4 | TOX, No. of animals exhibiting motor impairment/no. of used animals (neurotoxicity (rotarod); mice, dose 300 mg/kg b.w., 4 h): 1/2

CCC(O)CNC(=O)COc1c(C)cccc1C (stereo not shown) [Compound 63, R,S-1N-[(2,6-dimethylphenoxy)acetyl]amino-2-butanol]
MES, No. of protected animals/No. of used animals [1, 9]: 1/1 | TOX, No. of animals exhibiting motor impairment/no. of used animals (neurotoxicity (rotarod); [9]): 4/4

Cc1cccc(Cl)c1OCC(=O)NC(C)CO (stereo not shown) [Compound 69, R,S-2N-[(2-chlor-6-methylphenoxy)acetyl]amino-1-propanol]
MES, No. of protected animals/No. of used animals [1, 9]: 1/1 | TOX, No. of animals exhibiting motor impairment/no. of used animals (neurotoxicity (rotarod); [8]): 1/8 | TOX, No. of animals exhibiting motor impairment/no. of used animals (neurotoxicity (rotarod); [9]): 1/4

Cc1cccc(Cl)c1OCC(=O)N[C@H](C)CO [Compound 70, R-(−)-2N-[(2-chlor-6-methylphenoxy)acetyl]amino-1-propanol]
MES, No. of protected animals/No. of used animals [1, 9]: 1/1 | TOX, No. of animals exhibiting motor impairment/no. of used animals (neurotoxicity (rotarod); [9]): 3/4
